Assay results as given in US4033969A, “Vincamine derivatives” (Agence Nationale de Valorisation de la Recherche (ANVAR), priority 1972, dated 1977).
Like-named read-outs stand apart in the source and are kept apart here.

What was measured:
Type in all cases: in vivo
spinal rat = assay: Electroencephalographic consequences of cerebral hypoxia induced by temporary ischemia in rat; details: for Cortical recovery time / Cortical resistance time: rat ischemia, 5 min prior; for Cortical recovery time: saline 19.8 ± 1.3; for Cortical resistance time: saline 22.3 ± 0.6
Protocol: 3. Electroencephalographic consequences of cerebral hypoxia induced by temporary ischemia in rat
In spinal rat, the effects of a temporary cerebral ischemic hypoxia obtained by ligation of the vertebral arteries and clamping, during 60 seconds, of the carotid arteries, are investigated at the level of the electrocorticogram (recorded in fronto-parietal lead). The following times are determined:
on the one hand, the "cortical resistance" time, i.e., the period of time which elapses between failure of the cerebral circulation and the appearance, in the recording, of the "dectric silence"disappearance of cortical electrogenesis), and
on the other hand, the "cortical recovery" time, i.e., the period of time which elapses between unclamping of the carotid arteries and the reappearance of a cortical electrogenesis.
The test materials are administered intravenously 5 minutes prior to ischemia. The results obtained in the treated animals are compared with those obtained in a lot of reference animals according to Student's "t" method.

mice [1] = assay: Acute toxicity in mice (i.v.); details: mice
Protocol: (§1) 1. Acute toxicity in mice
(§2) The dosage of test material which, on intravenous administration in mice causes the death of 50% of the test animals is determined (death rate is determined after 10 days of observation).

[2] = Acute toxicity in mice (i.v.); details: mouse, in vivo, iv
Protocol: as §1, §2

curarized rat = assay: Electroencephalographic consequences of cerebral hypoxia induced by temporary asphyxia in rat; details: for Cortical recovery time / Cortical resistance time: rat asphyxia, 5 min prior; for Cortical recovery time: saline 42.3 ± 7.3; for Cortical resistance time: saline 77.8 ± 2.9
Source text: 4. Electroencephalographic consequences of a cerebral hypoxia induced by temporary asphyxia in rat
The effects of an asphyxic cerebral hypoxia, obtained by a two-minute interruption of the artificial respiration of a curarized rat are investigated at the level of the electro-corticogram (recorded in fronto-parietal lead) by determining:
on the one hand the "cortical resistance" time, i.e., the period of time which elapses between the discontinuation of artificial respiration and the appearance in the recording of the "electric silence" (disappearance of cortical electrogenesis),
(§3) on the other hand, the "cortical recovery" time, i.e., the period of time which elapses between the resumption of artificial respiration and the reappearance of a cortical electrogenesis.
(§4) The test materials are administered intravenously 5 minutes prior to asphyxia. The results obtained in the treated animals are compared with those obtained in a lot of reference animals, according to Student's "t" method.

mice [3] = assay: Survival time of mice under a confined atmosphere; details: for ED50: Mus musculus, protected = survival time greater by at least 30% than reference animals, read-out: ED50 (protects 50% of the test animals)
Protocol: 2. Survival time of mice under a confined atmosphere
Mice are individually placed in sealed 250 ml glass jars. Survival time is measured taking respiratory failure as a criterion of death.
The test materials are administered as aqueous solutions:
either intraperitoneally, in which case the animals are submitted to the test 30 minutes after injection,
or orally, in which case the animals are submitted to the test 1.5 hour after administration.
The dosage of material (ED50) which protects 50% of the test animals is determined: is considered as protected, a mouse having a survival time greater by a factor of at least 30% with respect to the average survival time of the reference animals.

curarized cat = assay: Electroencephalographic consequences of cerebral hypoxia induced by temporary asphyxia in cat; details: for Cortical recovery time / Cortical resistance time: cat asphyxia, 5 min prior; for Cortical recovery time: saline 27.3 ± 2.3; for Cortical resistance time: saline 108 ± 5.6
Source text: 5. Electroencephalographic consequences of cerebral hypoxia induced by temporary asphyxia in cat
The effects of an asphyxic cerebral hypoxia, obtained by temporary discontinuance of the artificial respiration of a curarized cat are investigated at the level of the electrocorticogram (recorded in parieto-occipital lead), by determining:
on the one hand, the "cortical resistance" time, i.e., the period of time which elapses between the discontinuance of the artificial respiration and the appearance in the recording of the "electric silence" (disappearance of cortical electrogenesis),
as §3, with “electrogenesis. The resumption of artificial respiration is effected in all cases 45 seconds after appearance of the cortical silence.” for “electrogenesis.”
as §4

[4] = ip, 0.5 h, i.p., 30 min before test
[5] = 2.5 mg/kg i.v., n=6, mean ± standard deviation from mean
[6] = 2.5 mg/kg i.v., n=8, mean ± standard deviation from mean

In the case of `COC(=O)[C@@]1(O)C[C@@H]2CCCN3CCc4c(n1c1ccccc41)[C@H]23` (relative stereo) [Deethylvincamine, (±) 20-Deethyl-vincamine], the Cortical recovery time (spinal rat; 0.25 mg/kg i.v., n=6) is reported as 20.3 ± 2.7 s, the Cortical resistance time (spinal rat; 0.25 mg/kg i.v., n=6) is reported as 25.3 ± 1.2 s and the Cortical recovery time (spinal rat; 0.5 mg/kg i.v., n=6, (*) significant P < 0.05 vs controls) is reported as 14.3 ± 1.1 s. The Cortical resistance time (spinal rat; 0.5 mg/kg i.v., n=6) was 24.3 ± 1.6 s, the “protective activity (decrease of time required for resumption of cortical electrogenesis)” value (spinal rat; rat, ischemia, 0.5 mg/kg i.v.) was “marked protective activity” and the “acute toxicity compared with vincamine” value (mice [1]) was “substantially of the same order of magnitude as that of vincamine”. It also gave an LD50 at 240 h [2] of 40 mg/kg, a Cortical recovery time (curarized rat; 0.5 mg/kg i.v., n=6) of 38.8 ± 5.9 s and a Cortical resistance time (curarized rat; 0.5 mg/kg i.v., n=6) of 84.2 ± 4.5 s. The Cortical recovery time (curarized rat; 1 mg/kg i.v., n=7, (*) significant P<0.05 vs controls) was 23.0 ± 5.0 s, the Cortical resistance time (curarized rat; 1 mg/kg i.v., n=7) was 78.0 ± 5.6 s and the “protective activity (decrease of time required for resumption of cortical electrogenesis)” value (curarized rat; rat, asphyxia, 1 mg/kg i.v.) was “marked protective activity”. The ED50 (mice [3]; [4]) was 8 mg/kg, the ED50 (mice [3]; po, 1.5 hour before test) was 24.5 mg/kg and the “Number of mice protected” value (mice [3]; i.p., 3 mg/kg, 30 min before test) was 1/6. The “Number of mice protected” value (mice [3]; i.p., 9 mg/kg, 30 min before test) was 3/6, the “Number of mice protected” value (mice [3]; i.p., 27 mg/kg, 30 min before test) was 6/6 and the “protective activity (increase of the survival time)” value (mice [3]; mice, confined atmosphere, i.p. and p.o., compared with vincamine) was “markedly superior to that of vincamine”. The “Number of mice protected” value (mice [3]; p.o., 7.5 mg/kg, 1.5 hour before test) was 0/6, the “Number of mice protected” value (mice [3]; p.o., 15 mg/kg, 1.5 hour before test) was 1/6 and the “Number of mice protected” value (mice [3]; p.o., 30 mg/kg, 1.5 hour before test) was 4/6. The Cortical recovery time (curarized cat; 0.5 mg/kg i.v., n=6, (*) significant P <0.05 vs controls) was 19.0 ± 2.0 s, the Cortical resistance time (curarized cat; 0.5 mg/kg i.v., n=6) was 98 ± 10.8 s and the “protective activity (decrease of time required for resumption of cortical electrogenesis)” value (curarized cat; cat, asphyxia, 0.5 mg/kg i.v.) was “exhibits a protective activity”.
Work on `CC[C@]12CCCN3CCc4c(n(c5ccccc45)[C@@](O)(C(=O)OC)C1)[C@@H]32` (racemic) [Vincamine, (.-+.)-Vincamine] yielded a Cortical recovery time (spinal rat; [5]) of 21.8 ± 2.0 s, a Cortical resistance time (spinal rat; [5]) of 22.2 ± 1.2 s and a Cortical recovery time (spinal rat; 5 mg/kg i.v., n=7) of 19.9 ± 3.0 s. For the same compound, the Cortical resistance time (spinal rat; 5 mg/kg i.v., n=7) was 23.4 ± 0.9 s, the protective activity (spinal rat; rat, ischemia, 2.5 and 5 mg/kg i.v.) was “free from any protective activity” and the LD50 at 240 h ([2]; mice, i.v., death rate after 10 days of observation) was 62 mg/kg. The Cortical recovery time (curarized rat; [5]) was 55.5 ± 20.2 s, the Cortical resistance time (curarized rat; [5]) was 83.3 ± 6.4 s and the Cortical recovery time (curarized rat; 5.0 mg/kg i.v., n=6) was 32.8 ± 1.8 s. For the same compound, the Cortical resistance time (curarized rat; 5.0 mg/kg i.v., n=6) was 89.0 ± 7.6 s, the protective activity (curarized rat; rat, asphyxia, 2.5 and 5 mg/kg i.v.) was “free from any protective activity” and the ED50 (mice [3]; [4]) was 18 mg/kg. For the same compound, the ED50 (mice [3]; po, 1.5 hour before test) was 40 mg/kg, the “Number of mice protected” value (mice [3]; i.p., 1 mg/kg, 30 min before test) was 0/6 and the “Number of mice protected” value (mice [3]; i.p., 5 mg/kg, 30 min before test) was 1/6. For the same compound, the “Number of mice protected” value (mice [3]; i.p., 25 mg/kg, 30 min before test) was 4/6, the “Number of mice protected” value (mice [3]; p.o., 25 mg/kg, 1.5 hour before test) was 2/6 and the “Number of mice protected” value (mice [3]; p.o., 50 mg/kg, 1.5 hour before test) was 4/6. The “Number of mice protected” value (mice [3]; p.o., 100 mg/kg, 1.5 hour before test) was 5/6, the Cortical recovery time (curarized cat; [6]) was 24.6 ± 3.4 s and the Cortical resistance time (curarized cat; [6]) was 101 ± 13.9 s. The Cortical recovery time (curarized cat; 5 mg/kg i.v., n=8, (*) significant P <0.05 vs controls) was 19.6 ± 1.4 s, the Cortical resistance time (curarized cat; 5 mg/kg i.v., n=8) was 101 ± 5.6 s and the protective activity (curarized cat; cat, asphyxia, 5 mg/kg i.v. (tenfold dosage)) was “apparent only at a tenfold dosage of 5 mg/kg i.v”.
